Six compounds from patent publication US9670261B2 (Sanofi, priority 2012, dated 2017) can be followed below.

Where two headings read alike, the source gives them in different places. *1 amine or outer side, *2 acyl side, *3 side chain or, on linkers, in order; H or OH if unused. Where a SMILES comes first, the peptide text is derived from it. Side-chain parts run from the residue outwards. [ ]: non-standard residue; d: D form. The star is where a group is joined. γGlu = O=C(O)[C@H](CCC(=O)[*:2])N[*:1]; Stearoyl = CCCCCCCCCCCCCCCCCC(=O)*; Palmitoyl = CCCCCCCCCCCCCCCC(=O)*; Aib = CC(C)(N)C(=O)O

The target in the test is T1, human GLP-1 receptor (Homo sapiens, UniProt P43220).
T1 construct: expressed in transfected cells
The experiment in a line: cAMP response (HTRF) of HEK-293 cells stably expressing human GLP-1 receptor. Type of test: cell-based. The note with it: read-out: EC50 hGLP-1 R. How it is done: cAMP content of cells was determined using a kit from Cisbio Corp. (cat. no. 62AM4PEC) based on HTRF (Homogenous Time Resolved Fluorescence). For preparation, cells were split into T175 culture flasks and grown overnight to near confluency in medium (DMEM/10% FBS). Medium was then removed and cells washed with PBS lacking calcium and magnesium, followed by proteinase treatment with accutase (Sigma-Aldrich cat. no. A6964). Detached cells were washed and resuspended in assay buffer (1×HBSS; 20 mM HEPES, 0.1% BSA, 2 mM IBMX) and cellular density determined. They were then diluted to 400000 cells/ml and 25 μl-aliquots dispensed into the wells of 96-well plates. For measurement, 25 μl of test compound in assay buffer was added to the wells, followed by incubation for 30 minutes at room temperature.
For orientation: In TR-FRET formats the signal depends on donor and acceptor labels being close together.

T1 sequence (P43220 24-463): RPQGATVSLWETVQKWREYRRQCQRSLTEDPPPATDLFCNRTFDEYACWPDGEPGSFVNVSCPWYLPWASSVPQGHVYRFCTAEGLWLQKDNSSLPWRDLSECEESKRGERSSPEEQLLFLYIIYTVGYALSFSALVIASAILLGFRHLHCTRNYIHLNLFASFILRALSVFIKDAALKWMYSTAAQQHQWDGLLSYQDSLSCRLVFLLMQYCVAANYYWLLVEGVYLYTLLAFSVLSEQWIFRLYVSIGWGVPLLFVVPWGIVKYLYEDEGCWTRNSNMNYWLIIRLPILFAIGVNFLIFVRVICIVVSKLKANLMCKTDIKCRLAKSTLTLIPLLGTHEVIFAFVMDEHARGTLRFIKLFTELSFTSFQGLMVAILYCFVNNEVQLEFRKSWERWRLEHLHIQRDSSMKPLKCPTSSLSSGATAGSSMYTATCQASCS

A word on the EC50: it is the concentration that produces a half-maximal response. As to `CCCCCCCCCCCCCCCCCC(=O)N[C@@H](CCC(=O)NCCCC[C@H](NC(=O)[C@H](CCC(N)=O)NC(=O)[C@@H](NC(=O)[C@H](CO)NC(=O)[C@H](CC(C)C)NC(=O)[C@H](CC(=O)O)NC(=O)[C@H](CO)NC(=O)[C@@H](NC(=O)[C@H](Cc1ccccc1)NC(=O)[C@@H](NC(=O)CNC(=O)[C@H](CCC(=O)O)NC(=O)C(C)(C)NC(=O)[C@@H](N)Cc1ccc(O)cc1)[C@@H](C)O)[C@@H](C)O)[C@@H](C)CC)C(=O)N[C@@H](CCC(=O)O)C(=O)N[C@@H](CCCCN)C(=O)N[C@@H](CCCNC(=N)N)C(=O)N[C@@H](C)C(=O)N[C@@H](C)C(=O)N[C@@H](CCC(N)=O)C(=O)N[C@@H](CCC(=O)O)C(=O)N[C@@H](Cc1ccccc1)C(=O)N[C@H](C(=O)N[C@@H](CCC(=O)O)C(=O)N[C@@H](Cc1c[nH]c2ccccc12)C(=O)N[C@@H](CC(C)C)C(=O)N[C@@H](CCCCN)C(=O)N[C@@H](CC(N)=O)C(=O)N[C@H](C(=O)NCC(=O)N1CCC[C@H]1C(=O)N[C@@H](CO)C(=O)N[C@@H](CO)C(=O)NCC(=O)N[C@@H](C)C(=O)N1CCC[C@H]1C(=O)N1CCC[C@H]1C(=O)N1CCC[C@H]1C(=O)N[C@@H](CO)C(N)=O)[C@@H](C)O)[C@@H](C)CC)C(=O)O` [SEQ ID NO: 19, Y-Aib-E-G-T-F-T-S-D-L-S-I-Q-K(γE-x70)-EKRAAQEFIEWLKNTGPSSGAPPPS-NH2] (H-Y[Aib]EGTFTSDLSIQK([γGlu-Stearoyl])EKRAAQEFIEWLKNTGPSSGAPPPS-NH2), the half-maximal effective concentration (EC50) (Table 7, cAMP formation) stood at 4 pM.

Turning to `CCCCCCCCCCCCCCCC(=O)N[C@@H](CCC(=O)NCCCC[C@H](NC(=O)[C@H](CCC(N)=O)NC(=O)[C@@H](NC(=O)[C@H](CO)NC(=O)[C@H](CC(C)C)NC(=O)[C@H](CC(=O)O)NC(=O)[C@H](CO)NC(=O)[C@@H](NC(=O)[C@H](Cc1ccccc1)NC(=O)[C@@H](NC(=O)CNC(=O)[C@H](CCC(=O)O)NC(=O)C(C)(C)NC(=O)[C@@H](N)Cc1ccc(O)cc1)[C@@H](C)O)[C@@H](C)O)[C@@H](C)CC)C(=O)N[C@@H](CCC(=O)O)C(=O)N[C@@H](CO)C(=O)N[C@@H](CCCNC(=N)N)C(=O)N[C@@H](C)C(=O)N[C@@H](C)C(=O)NC(C)(C)C(=O)N[C@@H](CC(=O)O)C(=O)N[C@@H](Cc1ccccc1)C(=O)N[C@H](C(=O)N[C@@H](CCC(=O)O)C(=O)N[C@@H](Cc1c[nH]c2ccccc12)C(=O)N[C@@H](CC(C)C)C(=O)N[C@@H](CCCCN)C(=O)N[C@@H](CC(N)=O)C(=O)N[C@H](C(=O)NCC(=O)N1CCC[C@H]1C(=O)N[C@@H](CO)C(=O)N[C@@H](CO)C(=O)NCC(=O)N[C@@H](C)C(=O)N1CCC[C@H]1C(=O)N1CCC[C@H]1C(=O)N1CCC[C@H]1C(=O)N[C@@H](CO)C(N)=O)[C@@H](C)O)[C@@H](C)CC)C(=O)O` [SEQ ID NO: 24, Y-Aib-E-G-T-F-T-S-D-L-S-I-Q-K(γE-x53)-E-S-R-A-A-Aib-D-F-I-E-W-L-K-N-T-G-P-S-S-G-A-P-P-P-S-NH2] (H-Y[Aib]EGTFTSDLSIQK([γGlu-Palmitoyl])ESRAA[Aib]DFIEWLKNTGPSSGAPPPS-NH2), for the setting “Table 7, cAMP formation”, the EC50 worked out at 13.5 pM.

Take `CCCCCCCCCCCCCCCC(=O)N[C@@H](CCC(=O)NCCCC[C@H](NC(=O)[C@H](CCC(N)=O)NC(=O)[C@@H](NC(=O)[C@H](CO)NC(=O)[C@H](CC(C)C)NC(=O)[C@H](CC(=O)O)NC(=O)[C@H](CO)NC(=O)[C@@H](NC(=O)[C@H](Cc1ccccc1)NC(=O)[C@@H](NC(=O)CNC(=O)[C@H](CCC(N)=O)NC(=O)C(C)(C)NC(=O)[C@@H](N)Cc1ccc(O)cc1)[C@@H](C)O)[C@@H](C)O)[C@@H](C)CC)C(=O)N[C@@H](CC(=O)O)C(=O)N[C@@H](CCCCN)C(=O)N[C@@H](CCCNC(=N)N)C(=O)N[C@@H](C)C(=O)N[C@@H](C)C(=O)N[C@@H](CCC(N)=O)C(=O)N[C@@H](CC(=O)O)C(=O)N[C@@H](Cc1ccccc1)C(=O)N[C@H](C(=O)N[C@@H](CCC(=O)O)C(=O)N[C@@H](Cc1c[nH]c2ccccc12)C(=O)N[C@@H](CC(C)C)C(=O)N[C@@H](CCCCN)C(=O)N[C@@H](C)C(=O)NCC(=O)NCC(=O)N1CCC[C@H]1C(=O)N[C@@H](CO)C(=O)N[C@@H](CO)C(=O)NCC(=O)N[C@@H](C)C(=O)N1CCC[C@H]1C(=O)N1CCC[C@H]1C(=O)N1CCC[C@H]1C(=O)N[C@@H](CO)C(N)=O)[C@@H](C)CC)C(=O)O` [SEQ ID NO: 28, Y-Aib-Q-G-T-F-T-S-D-L-S-I-Q-K(γE-x53)-DKRAAQDFIEWLKAGGPSSGAPPPS-NH2] (H-Y[Aib]QGTFTSDLSIQK([γGlu-Palmitoyl])DKRAAQDFIEWLKAGGPSSGAPPPS-NH2): the concentration giving a half-maximal response (EC50) (Table 7, cAMP formation) is 3.2 pM.

Take `CCCCCCCCCCCCCCCC(=O)N[C@@H](CCC(=O)NCCCC[C@H](NC(=O)[C@H](CCC(N)=O)NC(=O)[C@@H](NC(=O)[C@H](CO)NC(=O)[C@H](CC(C)C)NC(=O)[C@H](CC(=O)O)NC(=O)[C@H](CO)NC(=O)[C@@H](NC(=O)[C@H](Cc1ccccc1)NC(=O)[C@@H](NC(=O)CNC(=O)[C@H](CCC(N)=O)NC(=O)C(C)(C)NC(=O)[C@@H](N)Cc1ccc(O)cc1)[C@@H](C)O)[C@@H](C)O)[C@@H](C)CC)C(=O)N[C@@H](CC(=O)O)C(=O)N[C@@H](CO)C(=O)N[C@@H](CCCNC(=N)N)C(=O)N[C@@H](C)C(=O)N[C@@H](C)C(=O)N[C@@H](CCC(N)=O)C(=O)N[C@@H](CCC(=O)O)C(=O)N[C@@H](Cc1ccccc1)C(=O)N[C@H](C(=O)N[C@@H](CCC(=O)O)C(=O)N[C@@H](Cc1c[nH]c2ccccc12)C(=O)N[C@@H](CC(C)C)C(=O)N[C@@H](CCCCN)C(=O)N[C@@H](C)C(=O)NCC(=O)NCC(=O)N1CCC[C@H]1C(=O)N[C@@H](CO)C(=O)N[C@@H](CO)C(=O)NCC(=O)N[C@@H](C)C(=O)N1CCC[C@H]1C(=O)N1CCC[C@H]1C(=O)N1CCC[C@H]1C(=O)N[C@@H](CO)C(N)=O)[C@@H](C)CC)C(=O)O` [SEQ ID NO: 29, Y-Aib-Q-G-T-F-T-S-D-L-S-I-Q-K(γE-x53)-DSRAAQEFIEWLKAGGPSSGAPPPS-NH2] (H-Y[Aib]QGTFTSDLSIQK([γGlu-Palmitoyl])DSRAAQEFIEWLKAGGPSSGAPPPS-NH2): the EC50 (Table 7, cAMP formation) was 7 pM.

With `CCCCCCCCCCCCCCCC(=O)N[C@@H](CCC(=O)NCCCC[C@H](NC(=O)[C@H](CCC(N)=O)NC(=O)[C@@H](NC(=O)[C@H](CO)NC(=O)[C@H](CC(C)C)NC(=O)[C@H](CC(=O)O)NC(=O)[C@H](CO)NC(=O)[C@@H](NC(=O)[C@H](Cc1ccccc1)NC(=O)[C@@H](NC(=O)CNC(=O)[C@H](CCC(=O)O)NC(=O)C(C)(C)NC(=O)[C@@H](N)Cc1ccc(O)cc1)[C@@H](C)O)[C@@H](C)O)[C@@H](C)CC)C(=O)N[C@@H](CCC(=O)O)C(=O)N[C@@H](CO)C(=O)N[C@@H](CCCNC(=N)N)C(=O)N[C@@H](C)C(=O)N[C@@H](C)C(=O)N[C@@H](CCC(N)=O)C(=O)N[C@@H](CCC(=O)O)C(=O)N[C@@H](Cc1ccccc1)C(=O)N[C@H](C(=O)N[C@@H](CCC(=O)O)C(=O)N[C@@H](Cc1c[nH]c2ccccc12)C(=O)N[C@@H](CC(C)C)C(=O)N[C@@H](CCCCN)C(=O)N[C@@H](C)C(=O)NCC(=O)NCC(=O)N1CCC[C@H]1C(=O)N[C@@H](CO)C(=O)N[C@@H](CO)C(=O)NCC(=O)N[C@@H](C)C(=O)N1CCC[C@H]1C(=O)N1CCC[C@H]1C(=O)N1CCC[C@H]1C(=O)N[C@@H](CO)C(N)=O)[C@@H](C)CC)C(=O)O` [SEQ ID NO: 39, Y-Aib-E-G-T-F-T-S-D-L-S-I-Q-K(γE-x53)-ESRAAQEFIEWLKAGGPSSGAPPPS-NH2] (H-Y[Aib]EGTFTSDLSIQK([γGlu-Palmitoyl])ESRAAQEFIEWLKAGGPSSGAPPPS-NH2), the 50% effective concentration (EC50) (Table 7, cAMP formation) was 4.3 pM.

On to `CC[C@H](C)[C@H](NC(=O)[C@H](Cc1ccccc1)NC(=O)[C@H](CC(=O)O)NC(=O)[C@H](CCC(N)=O)NC(=O)[C@H](C)NC(=O)[C@H](C)NC(=O)[C@H](CCCNC(=N)N)NC(=O)[C@H](CO)NC(=O)[C@H](CCC(=O)O)NC(=O)[C@H](CC(C)C)NC(=O)[C@H](CCC(N)=O)NC(=O)[C@@H](NC(=O)[C@H](CO)NC(=O)[C@H](CC(C)C)NC(=O)[C@H](CC(=O)O)NC(=O)[C@H](CO)NC(=O)[C@@H](NC(=O)[C@H](Cc1ccccc1)NC(=O)[C@@H](NC(=O)CNC(=O)[C@H](CCC(N)=O)NC(=O)C(C)(C)NC(=O)[C@@H](N)Cc1ccc(O)cc1)[C@@H](C)O)[C@@H](C)O)[C@@H](C)CC)C(=O)N[C@@H](CCC(=O)O)C(=O)N[C@@H](Cc1c[nH]c2ccccc12)C(=O)N[C@@H](CC(C)C)C(=O)N[C@@H](CCCCN)C(=O)N[C@@H](C)C(=O)NCC(=O)NCC(=O)N1CCC[C@H]1C(=O)N[C@@H](CO)C(=O)N[C@@H](CO)C(=O)NCC(=O)N[C@@H](C)C(=O)N1CCC[C@H]1C(=O)N1CCC[C@H]1C(=O)N1CCC[C@H]1C(=O)N[C@@H](CO)C(N)=O` [SEQ ID NO: 40, Y-Aib-QGTFTSDLSIQLESRAAQDFIEWLKAGGPSSGAPPPS-NH2, reference compound] (H-Y[Aib]QGTFTSDLSIQLESRAAQDFIEWLKAGGPSSGAPPPS-NH2; N-terminus assumed), for which the concentration giving a half-maximal response (EC50) (Table 8, functionalized vs non-functionalized position 14) was 3.2 pM.
